Patent US9469643B2, “Polymorphic forms of (S)-2-(1-(9H-purin-6-ylamino)propyl)-5-fluoro-3-phenylquinazolin-4(3H)-one” (GILEAD CALISTOGA LLC, priority 2012, dated 2016)
Values after ≈ are worked out from the molar mass of the structure shown. Like-named read-outs stand apart in the source and are kept apart here. One block for each compound: values may come before it.

What was measured:
Type in all cases: physicochemical
[1] = Effect of temperature on form conversion of solids (DSC, heating, XRPD)
Procedure: DSC indicated close melting points for each polymorph and a solid-solid transition in Form II at about 115° C. to produce Form I. To confirm this finding, […] of Form I of (S)-2-(1-(9H-purin-6-ylamino)propyl)-5-fluoro-3-phenylquinazolin-4(3H)-one was heated at 50° C., 60° C., 70° C., 80° C., 90° C., 100° C., 110° C. and 120° C. jacket temperature using Destiny for 22 hours.

[2] = Hydrate screen in IPA/water system: solubility of slurried Form I; conditions: isopropyl alcohol/water mixture, organic solvent or mixture, thermodynamic from solid; for solubility: read-out: 15-16 Day Solubility
Procedure: (§1) About 50 mg of Form I of (S)-2-(1-(9H-purin-6-ylamino)propyl)-5-fluoro-3-phenylquinazolin-4(3H)-one was slurried in either (A) a 1-mL mixture of a isopropyl alcohol (IPA) and water, or (B) a 1-mL mixture of ethanol and water, for several days at room temperature. As used herein, water activity (aw) in liquid phase corresponds to relative humidity in the atmosphere. For example, 0.5 aw is equivalent to 50% relative humidity.

[3] = Hydrate screen in IPA/water system: solid form by XRPD
Procedure: XRPD patterns were collected using a PANalytical X'Pert MPD Pro Powder X-Ray Diffractometer configured with reflectance stage with spinning, data acquisition range: 2-40 degrees 2θ, Copper (Cu) anode; Kα1/Kα2 radiation; tube current 40 mA; tube tension 45 kV; automatic divergence and anti-scatter slits. Samples were prepared for analysis by distributing solid material as a thin layer on a silicon holder. Each holder was mounted on a reflectance/transmittance stage and rotated during data acquisition.
as §1

[4] = Form I suspensions in acetone at different temperatures: form conversion; conditions: magnetic stirring
Procedure: Form I of (S)-2-(1-(9H-purin-6-ylamino)propyl)-5-fluoro-3-phenylquinazolin-4(3H)-one was suspended in acetone at a concentration of 50 mg/mL, and stirred magnetically over a period of 5-6 days. Four experiments at different temperature were conducted.
Table 4 summarizes the reaction conditions and the amount of polymorphic forms observed for each of the four experiments. As used in this Example, “Enriched II” described a sample that contains substantially more Form II than Form I.

[5] = Hydrate screen in ethanol/water system: solid form
Procedure: as §1
Form VII of (S)-2-(1-(9H-purin-6-ylamino)propyl)-5-fluoro-3-phenylquinazolin-4(3H)-one was a mixed water/ethanol solvate.

[6] = Compression of Form I in hydraulic tablet press, XRPD
Procedure: Form I of (S)-2-(1-(9H-purin-6-ylamino)propyl)-5-fluoro-3-phenylquinazolin-4(3H)-one was subjected to high pressure in a hydraulic tablet press (ENERPAC Model P142 hydraulic press; #9166 0.275 inch punch) as shown in Table 3 below. The relaxation time is the time between compressions. A sample of the compressed solids was analyzed by XRPD and DSC. FIGS. 2A and 2B depict the XRPD and DSC patterns of polymorphic Form II.

[7] = Conversion of ball milled Form I into Form II in acetone slurry (XRPD); conditions: 10 g ball milled at 30 Hz for 10 minutes, stirred in 300 mL acetone at 28° C.
Procedure: Form I was prepared as described in Example 1. Form I solids were ball milled in batches for 10 minutes at 30 Hz. Samples were analyzed by XRPD. Table 1 below summarizes the amount of polymorphic Form II observed from conversion of polymorphic Form I. Additionally, 10 g of Form I was ball milled at 30 Hz for 10 minutes and stirred in 300 mL of acetone at 28° C.

[8] = Dry and wet grinding experiments: conversion of Form I into Form II in slurry
Procedure: Form I of (S)-2-(1-(9H-purin-6-ylamino)propyl)-5-fluoro-3-phenylquinazolin-4(3H)-one was pre-processed using various grinding methods before forming a slurry in either acetone or THF and stirring at either room temperature, 22° C. or 30° C. As used in this Example, “enriched” describes a sample that contains substantially more Form II than Form I.

[9] = IPA/water aw 0.2, room temperature, solid by XRPD Form I & II
[10] = IPA/water aw 0.3, room temperature, solid by XRPD Form I & II
[11] = IPA/water aw 0.4, room temperature, solid by XRPD Form I & II
[12] = IPA/water aw 0.5, room temperature, solid by XRPD Form I & II
[13] = IPA/water aw 0.6, room temperature, solid by XRPD Form I & II
[14] = Form I slurried in IPA/water aw 0.2, room temperature
[15] = Form I slurried in IPA/water aw 0.3, room temperature
[16] = Form I slurried in IPA/water aw 0.4, room temperature
[17] = Form I slurried in IPA/water aw 0.5, room temperature
[18] = Form I slurried in IPA/water aw 0.6, room temperature
[19] = Form I slurried in IPA/water aw 0.7, room temperature
[20] = Form I slurried in IPA/water aw 0.8, room temperature
[21] = Form I slurried in IPA/water aw 0.9, room temperature

- solid-solid transition temperature (to produce Form I) ([1]; by DSC): about 115 °C
SMILES: CC[C@H](Nc1ncnc2[nH]cnc12)c1nc2cccc(F)c2c(=O)n1-c1ccccc1 [Form II, (S)-2-(1-(9H-purin-6-ylamino)propyl)-5-fluoro-3-phenylquinazolin-4(3H)-one]

- solubility at 48 h [2, 9]: 24 mg/mL (≈ 57.8 mM)
- solubility [2, 9]: 20 mg/mL (≈ 48.1 mM)
- solubility at 48 h [2, 10]: 19 mg/mL (≈ 45.7 mM)
- solubility [2, 10]: 19 mg/mL (≈ 45.7 mM)
- solubility at 48 h [2, 11]: 18 mg/mL (≈ 43.3 mM)
- solubility [2, 11]: 20 mg/mL (≈ 48.1 mM)
- solubility at 48 h [2, 12]: 23 mg/mL (≈ 55.4 mM)
- solubility [2, 12]: 20 mg/mL (≈ 48.1 mM)
- solubility at 48 h [2, 13]: 23 mg/mL (≈ 55.4 mM)
- solubility [2, 13]: 24 mg/mL (≈ 57.8 mM)
- solubility at 48 h ([2]; IPA/water aw 0.7, room temperature, solid by XRPD Form III): 9.8 mg/mL (≈ 23.6 mM)
- solubility at 48 h ([2]; IPA/water aw 0.8, room temperature, solid by XRPD Form III): 11 mg/mL (≈ 26.5 mM)
- 15-16 Day XRPD (solid form) [3, 14]: Form I & II
- 48 Hour XRPD (solid form) [3, 14]: Form I & II
- 15-16 Day XRPD (solid form) [3, 15]: Form I & II
- 48 Hour XRPD (solid form) [3, 15]: Form I & II
- 15-16 Day XRPD (solid form) [3, 16]: Form I & II
- 48 Hour XRPD (solid form) [3, 16]: Form I & II
- 15-16 Day XRPD (solid form) [3, 17]: Form I & II
- 48 Hour XRPD (solid form) [3, 17]: Form I & II
- 15-16 Day XRPD (solid form) [3, 18]: Form I & II
- 48 Hour XRPD (solid form) [3, 18]: Form I & II
- 15-16 Day XRPD (solid form) [3, 19]: Form III
- 48 Hour XRPD (solid form) [3, 19]: Form III
- 15-16 Day XRPD (solid form) [3, 20]: Form III
- 48 Hour XRPD (solid form) [3, 20]: Form III
- 15-16 Day XRPD (solid form) [3, 21]: Form III
- 48 Hour XRPD (solid form) [3, 21]: Form III
- Form observed after suspension in acetone ([4]; 50 mg/mL, 30 ° C., suspension time 5 days): Enriched II
- Form observed after suspension in acetone ([4]; 51 mg/mL, 27 ° C., suspension time 5 days): Enriched II
- Form observed after suspension in acetone ([4]; 52 mg/mL, 33 ° C., suspension time 6 days): Form I
- Form observed after suspension in acetone ([4]; 52 mg/mL, 37 ° C., suspension time 6 days): Form I
- Form (solid form after slurry) ([5]; Form I slurried in ethanol/water aw 0.9, several days, room temperature): I & VII
- Form conversion in ethanol/water system ([5]; water activity 0.5 and 0.6, room temperature (data not shown in Table 6)): no conversion
- Form conversion in ethanol/water system ([5]; water activity from 0.2 to 0.4, room temperature (data not shown in Table 6)): slowly converted to Form II
- temperature at which form conversion of heated solids was observed ([1]; solids heated at 50-120° C. jacket temperature for 22 hours, XRPD (FIG. 6)): around 90 °C
- XRPD (forms observed) ([6]; 163 mg, 2000 psi, 5 min, relaxation time 72 hours): I & II (~1:1)
- XRPD (forms observed) ([6]; 164 mg, 3000 psi, 5 min, relaxation time 2 hours): I & II (~1:1)
- XRPD (forms observed) ([6]; 167 mg, 2000 psi, 10 min, relaxation time 72 hours): I & II (~1:1)
- XRPD (forms observed) ([6]; 168 mg, 3000 psi, 10 min, relaxation time 2 hours): I & II (~1:1)
- XRPD (forms observed) ([6]; 171 mg, 3000 psi, 60 min, relaxation time 72 hours): I & II (excess
- XRPD (forms observed) ([6]; amount NA, atm pressure, no compression): Form I &
- conversion of Form I to Form II ([6]; compressed at 3000 psi for 60 minutes (FIG. 5C)): over 50%
- XRPD (forms observed) ([6]; ~150 mg, 1000 psi, <0.5 min, relaxation time 24 hours): Form I and II
- XRPD (forms observed) ([6]; ~150 mg, atm pressure, no compression): Form I and II
- XRPD (forms observed) ([6]; ~160 mg, 4500 psi, <0.5 min): Form I and II
- conversion of Form I into Form II ([7]; after 18 hours): about 50%
- conversion of Form I into Form II ([7]; after 40 hours): about 90%
- Form II content ([8]; 0.2 g, dry/wet grinding, acetone slurry, r.t., magnetic stirring, after 1 day): Enriched after 1 day
- Form II content ([8]; 0.2 g, dry/wet grinding, acetone slurry, r.t., magnetic stirring, after 2 days): Highly enriched after 2 days
- Form II content ([8]; 1 g, dry/wet grinding, acetone slurry, r.t., magnetic stirring, after 1 week): Trace amount after 1 week
- Form II content ([8]; 1 g, high shear mixer (dry), THF slurry, r.t., magnetic stirring, after 1 day): Trace amount after 1 day
- Form II content ([8]; 1 g, high shear mixer (dry), acetone slurry, r.t., magnetic stirring, after 1 day): Trace amount after 1 day
- Form II content ([8]; 1 g, jet milled, acetone slurry, 22 ° C., magnetic stirring, after 1 day): Small amount after 1 day
- Form II content ([8]; 1 g, jet milled, acetone slurry, 22 ° C., magnetic stirring, after 4 days): Enriched after 4 days
- Form II content ([8]; 5 g, high shear wet mill, acetone slurry, 30 ° C., overhead stirring, after 3 days): Undetectable after 3 days
- Form II content ([8]; 20 g, dry grinding, acetone slurry, 30 ° C., overhead stirring, after 3 days): Undetectable after 3 days
SMILES: CC[C@H](Nc1ncnc2[nH]cnc12)c1nc2cccc(F)c2c(=O)n1-c1ccccc1 [Form I, (S)-2-(1-(9H-purin-6-ylamino)propyl)-5-fluoro-3-phenylquinazolin-4(3H)-one]
